The record followed here is patent US20030077576A1, “Use of monoclonal antibodies and functional assays for prediction of risk of opportunistic infection” (priority 2001, published 2003).

What all share (format): cell-based, human
The subject of one assay is monocyte VLA-5 (CD49e). The settings on record: for log fluorescence intensity for VLA-5 (CD49e stained with mAb SAM-1) in the CD14+ (monocyte) population, FN120: 2 μM FN120 for 2 h in the presence of the protease inhibitor; for log fluorescence intensity for VLA-5 (CD49e stained with mAb SAM-1) in the CD14+ (monocyte) population, FN120 / log fluorescence intensity for VLA-5 (CD49e stained with mAb SAM-1) in the CD14+ (monocyte) population, No Rx: 0.2 mM PMSF, 2 mM CdCl2, 40 μM bestatin, 10 μM 1,10 phenanthroline, 0.1 mM EGTA, mean ± SEM, three donors; for log fluorescence intensity for VLA-5 (CD49e stained with mAb SAM-1) in the CD14+ (monocyte) population, No Rx: protease inhibitor alone, no FN120, 2 h. As to the method: Briefly, heparinized blood was distributed in 0.1-ml aliquots into polypropylene tubes for incubation with saturating concentrations of primary or secondary antibodies at 4° C. for 30 min. Incubations were separated by two washes with ice-cold Dulbecco's PBS (Gibco Laboratories, Grand Island, N.Y.). FITC-conjugated sheep anti-mouse Ig was used at a dilution of 1:120. PE-conjugated anti-CD14 (clone 116, Beckman Coulter), added after the secondary antibody, was used according to the manufacturer's directions. After leukocytes were stained and washed, red cells were lysed with FACS Lysing Solution (Becton Dickinson). Leukocytes were washed again, fixed in 1% paraformaldehyde, and analyzed by flow cytometry the day of the experiment. […] Total white blood cell (Coulter Counter, Coulter Electronics, Hialeah, Fla.) and differential counts were measured in aliquots of the same blood samples used for immunofluorescence studies. Tests of control blood donors were randomly interspersed among patient samples.
Flow cytometry was performed on an Epics Profile 1 with three fluorescence channels (Coulter Cytometry, Hialeah, Fla.) that has an argon laser tuned to 488 nm. Daily alignment and calibration of the instrument was performed with DNA-check and Standard-Brite fluorescent beads (Coulter). Green (FL1), orange (FL2), and red (FL3) fluorescence signals are measured on a four-decade logarithmic scale. Linearity of log fluorescence intensity was checked with Immuno-Brite fluorescent beads. Appropriate compensations for spectral overlap between the three channels is carried out prior to calculating data. The mean intensity of fluorescence, measured on a 4 decade logarithmic scale, was converted to a linear scale, using a 256 channel histogram, to give a mean channel number, also known as the mean channel fluorescence (MCF). This was used to estimate the average fluorescence emission of cells reactive with specific monoclonal antibodies. Cell surface display of specific mAbs were precisely delineated when necessary by means of quantitative flow cytometry, using the Quantum Simply Cellular Microbeads Kit from Sigma BioSciences, St. Louis, Mo. This kit contained four bead populations that bind graduated quantities of antibodies per bead. […] By interpolation, this standard curve was used to accurately estimate the quantity of antibody bound to other cellular targets. Leukocytes were initially selected for fluorescence analysis by a combination of right-angle and low angle forward light scatter. Two color fluorescence, with PE conjugated anti-CD14 as a qualifier was used specifically to identify monocytes, and anti-CD3 to identify T lymphocytes. Other lymphoid elements were identified, as required, by using appropriate direct antibody conjugates. At least 2500 monocytes were counted in each sample. Fluorescence measurements from isotype controls were subtracted from data obtained with all reported antibodies.
To determine how fragments of fibronectin might affect VLA-5 expression, the effect of adding purified 120 kD and 40 kD fragments of fibronectin to heparin-anticoagulated whole blood from normal donors was measured. The 120 kD fragment has an RGD motif and binds to VLA-5 on cells.

Another assay relates to U937 monocytoid cells. Description: FN120 treatment of U937 monocytoid cells: proteinase-3 expression and VLA-5 shedding. The note with it: U937 cells treated with FN120. The text has this:
To further investigate how FN120 causes VLA-5 shedding, U937 monocytoid cells were studied. These display greater quantities of VLA-5 than blood monocytes. They also display the serine protease, proteinase-3, when activated (Rao et al., 1996). U937 cells were washed repeatedly, to remove exogenous fibronectin and serum proteases, and resuspended in serum-free medium for treatment with FN120. […] Treating the cells with polyclonal anti-proteinase-3 or serine proteinase inhibitors such as alpha-antitrypsin blocked proteinase-3 activity. Blocking proteinase-3 activity with either agent prevented hydrolysis and release of VLA-5 molecules that are otherwise shed when U937 cells are incubated with FN120 as shown in FIG. 11.

The next assay has as its system CD14+ monocytes. Description: Monocyte migration into collagenous matrices with or without native fibronectin. The settings on record: 4 hrs at 37° C., pads impregnated with full-length 220 kD native fibronectin. As to the method:
Briefly, monocytes were incubated with collagenous matrices, half of which had been impregnated with full-length 220 kD native fibronectin. After 4 hrs contact at 37° C., unbound MNLs were washed away. The pads were dissolved with collagenase to recover and count the cells that had migrated into the matrix (Birdsall et al., 1997).

Take `c1cnc2c(c1)ccc1cccnc12` [1,10 phenanthroline]: in the assay with monocyte VLA-5 (CD49e), the “log fluorescence intensity for VLA-5 (CD49e stained with mAb SAM-1) in the CD14+ (monocyte) population, FN120” value (shortened to “log fluorescence intensity … FN120”) is given as 3.1 ± 0.6 and the “log fluorescence intensity for VLA-5 (CD49e stained with mAb SAM-1) in the CD14+ (monocyte) population, No Rx” value (from here on “log fluorescence intensity … No Rx”) came to 4.9 ± 0.6.
In the case of `O=CC[C@@H](O)[C@H](O)[C@H](O)CO` [2-deoxyglucose], in the assay on monocyte VLA-5 (CD49e) (2-deoxyglucose and sodium azide together, with 120 kD fibronectin fragments), the “loss of VLA-5 with 120 kD fibronectin fragments when cellular metabolism is inhibited” value is recorded as “failed to occur”.
On to `[Cl][Cd][Cl]` [CdCl2], for which, in the assay on monocyte VLA-5 (CD49e), the “log fluorescence intensity … FN120” value was determined as 2.2 ± 0.3 and the “log fluorescence intensity … No Rx” value amounted to 4.7 ± 0.5.
The matching figures for `O=C(O)CN(CCOCCOCCN(CC(=O)O)CC(=O)O)CC(=O)O` [EGTA]: 2.8 ± 0.6 and 5.1 ± 0.3.
The matching figures for `O=S(=O)(F)Cc1ccccc1` [PMSF, phenylmethylsulfonylfluoride]: 5.8 ± 0.7 and 5.4 ± 0.5.
As for `CC(C)C[C@H](NC(=O)[C@@H](O)[C@H](N)Cc1ccccc1)C(=O)O` [bestatin], in the assay on monocyte VLA-5 (CD49e), the “log fluorescence intensity … FN120” value is 2.4 ± 0.5 and the “log fluorescence intensity … No Rx” value is 4.9 ± 0.3.
As to “alpha-antitrypsin: serine proteinase inhibitor”, the proteinase-3 activity result in the assay with U937 monocytoid cells is on record as “blocked”.
With fibronectin, in the assay on CD14+ monocytes, the “CD14+ monocytes accumulated in fibronectin-containing pads versus plain collagen pads” value was “three times as many”.
